Data taken from article PMC7395850 (Biochemical and biophysical research communications, 2019).

Columns and labels:
Format in all cases: biochemical
[1] = target: T1, C-EH in mouse sEH (Mus musculus, UniProt P34914); experiment: C-EH activity assay with PHOME substrate, mouse sEH; details: for IC50: read-out: IC50 for C-EH in mouse sEH, mouse sEH, PHOME substrate; for time-dependent change in C-EH inhibition, mouse sEH: preincubation time-window 1.7−120 min
T1 sequence (P34914 1-554): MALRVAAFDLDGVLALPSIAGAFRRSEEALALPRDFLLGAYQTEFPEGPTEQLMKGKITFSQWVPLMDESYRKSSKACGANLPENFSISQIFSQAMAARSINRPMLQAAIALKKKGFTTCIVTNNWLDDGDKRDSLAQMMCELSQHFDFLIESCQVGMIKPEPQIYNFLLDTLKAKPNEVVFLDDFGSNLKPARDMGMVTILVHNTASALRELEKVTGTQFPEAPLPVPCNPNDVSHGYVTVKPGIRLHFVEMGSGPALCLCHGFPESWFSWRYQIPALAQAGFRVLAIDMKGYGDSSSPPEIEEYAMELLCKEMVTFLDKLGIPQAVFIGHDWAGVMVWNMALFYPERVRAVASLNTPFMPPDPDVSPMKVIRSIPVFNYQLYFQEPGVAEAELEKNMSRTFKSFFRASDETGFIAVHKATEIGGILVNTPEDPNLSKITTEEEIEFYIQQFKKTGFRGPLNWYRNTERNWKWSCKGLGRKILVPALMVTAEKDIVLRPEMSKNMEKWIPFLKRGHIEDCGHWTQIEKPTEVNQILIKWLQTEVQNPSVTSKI

[2] = target: T2, N-phos in mouse sEH (Mus musculus, UniProt P34914); experiment: N-phos activity assay with AttoPhos substrate, mouse sEH; details: for Ki: read-out: KI for mouse N-phos, competitive with respect to AttoPhos; for inhibition mechanism, mouse N-phos: with respect to the substrate AttoPhos; for selectivity index (N-phos over C-EH) in mouse sEH: IC50 C-EH / IC50 N-phos; for inhibition of mouse N-phos: inhibitor at 6 μM; for species preference of N-phos inhibition (mouse versus human), in words: mouse at 6 μM versus human at 30 μM (Figure 1D); for inhibition of mouse N-phos, in words: screening, 6 μM
T2 sequence (P34914 1-554): T1 sequence (P34914 1-554)

[3] = target: T3, C-EH in human sEH (Homo sapiens, UniProt P34913); experiment: C-EH activity assay with PHOME substrate, human sEH; details: for IC50: read-out: IC50 for C-EH in human sEH, human sEH, PHOME substrate; for time-dependent change in C-EH inhibition, human sEH: preincubation 1.7, 10, 30 and 120 min
T3 sequence (P34913 1-555): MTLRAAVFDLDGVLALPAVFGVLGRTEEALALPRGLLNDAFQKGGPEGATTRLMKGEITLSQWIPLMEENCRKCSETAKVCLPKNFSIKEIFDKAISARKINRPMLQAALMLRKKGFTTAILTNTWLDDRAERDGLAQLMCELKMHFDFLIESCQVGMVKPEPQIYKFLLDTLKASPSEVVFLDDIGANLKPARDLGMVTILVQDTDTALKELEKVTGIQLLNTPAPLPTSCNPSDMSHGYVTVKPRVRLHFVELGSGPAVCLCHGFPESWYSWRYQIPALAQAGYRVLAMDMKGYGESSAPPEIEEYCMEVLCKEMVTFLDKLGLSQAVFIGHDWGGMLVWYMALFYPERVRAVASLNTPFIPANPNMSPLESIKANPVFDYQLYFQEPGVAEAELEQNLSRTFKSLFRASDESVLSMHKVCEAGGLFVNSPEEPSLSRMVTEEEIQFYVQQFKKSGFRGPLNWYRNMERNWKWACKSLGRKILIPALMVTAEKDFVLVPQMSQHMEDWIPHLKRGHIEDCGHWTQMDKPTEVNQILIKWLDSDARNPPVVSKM

[4] = target: T4, N-phos in human sEH (Homo sapiens, UniProt P34913); experiment: N-phos activity assay with AttoPhos substrate, human sEH; details: for selectivity index (N-phos over C-EH) in human sEH: IC50 C-EH / IC50 N-phos; for Ki: read-out: KI for human N-phos, competitive with respect to AttoPhos; for inhibition mechanism, human N-phos: with respect to the substrate AttoPhos; for species preference of N-phos inhibition (human versus mouse), in words: human at 30 μM versus mouse at 6 μM (Figure 1B); for inhibition of human N-phos: inhibitor at 30 μM; for inhibition of human N-phos, in words: screening, 30 μM
T4 sequence (P34913 1-555): T3 sequence (P34913 1-555)

| SMILES | IC50 [1] [µM] | Ki [2] [µM] | inhibition mechanism, mouse N-phos [2] | IC50 [3] [µM] | Ki [4] [µM] | inhibition mechanism, human N-phos [4] | inhibition of human N-phos [4] [%] | inhibition of mouse N-phos [2] [%] | inhibition of mouse N-phos, in words [2] | inhibition of human N-phos, in words [4] | selectivity index (N-phos over C-EH) in human sEH [4] | further results |
| --- | --- | --- | --- | --- | --- | --- | --- | --- | --- | --- | --- | --- |
| CC(=O)N[C@@H](CSC/C=C(\C)CC/C=C(\C)CCC=C(C)C)C(=O)O [AFC, N-Acetyl-S-farnesyl-L-cysteine, reference compound] | 48 | 33 | competitively | > 100 | 1.1 | competitively | – | – | – | – | > 29 | – |
| CC(C)(C)OC(=O)N[C@@H](Cc1ccc(OCc2ccccc2)cc1)C(=O)O [Compound 23, Boc-L-Tyr(Bzl)] | – | 9 | competitively | 190 | 0.89 | competitively | > 72 | – | – | – | 127 | time-dependent change in C-EH inhibition, human sEH [3]: no time-dependent change; species preference of N-phos inhibition (human versus mouse), in words [4]: more potent on inhibiting the human N-phos than the mouse enzyme; preference for human N-phos over mouse N-phos ([4]; ratio of KI values): 10 fold |
| N#Cc1ccc(C[C@H](NC(=O)OCC2c3ccccc3-c3ccccc32)C(=O)O)cc1 [Compound 67, Fmoc-L-Phe(4-CN)] | 85 | 1.1 | competitively | – | 26 | competitively | – | > 75 | – | – | – | time-dependent change in C-EH inhibition, mouse sEH [1]: did not display any time-dependent change; selectivity index (N-phos over C-EH) in mouse sEH [2]: 37; species preference of N-phos inhibition (mouse versus human), in words [2]: more potent on inhibiting the mouse N-phos than the human enzyme; preference for mouse N-phos over human N-phos ([2]; ratio of KI values): 24 fold |
| COc1ccc(C[C@@H](NC(=O)OCC2c3ccccc3-c3ccccc32)C(=O)O)cc1 [Compound 72, Fmoc-D-Tyr(Me)] | – | – | – | > 200 | – | – | > 72 | – | – | – | > 31 | time-dependent change in C-EH inhibition, human sEH [3]: no time-dependent change |
| CC(C)(C)OC(=O)n1cc(C[C@H](NC(=O)OCC2c3ccccc3-c3ccccc32)C(=O)O)c2ccccc21 [Compound 95, Fmoc-L-Trp(Boc)] | – | – | – | – | – | – | > 72 | > 75 | inhibitory | inhibitory | – | – |
| CC(C)(C)OC(=O)n1cc(C[C@@H](NC(=O)OCC2c3ccccc3-c3ccccc32)C(=O)O)c2ccccc21 [Compound 96, Fmoc-D-Trp(Boc)] | – | – | – | – | – | – | > 72 | > 75 | inhibitory | inhibitory | – | – |

Second part, led by results:

| IC50 [1] [µM] | Ki [2] [µM] | inhibition mechanism, mouse N-phos [2] | IC50 [3] [µM] | Ki [4] [µM] | inhibition mechanism, human N-phos [4] | inhibition of human N-phos [4] [%] | inhibition of mouse N-phos [2] [%] | inhibition of mouse N-phos, in words [2] | inhibition of human N-phos, in words [4] | SMILES | selectivity index (N-phos over C-EH) in human sEH [4] | further results |
| --- | --- | --- | --- | --- | --- | --- | --- | --- | --- | --- | --- | --- |
| – | – | – | – | – | – | > 72 | – | – | – | CC(C)(C)OC(=O)N[C@H](Cc1ccc(OC(=O)OCc2ccccc2Br)cc1)C(=O)O [Compound 30, Boc-D-Tyr(2-Br-Z)] | – | species preference of N-phos inhibition (human versus mouse), in words [4]: more potent on inhibiting the human N-phos than the mouse enzyme |
| – | – | – | – | – | – | – | > 75 | – | – | O=C(N[C@@H](Cc1ccccc1Cl)C(=O)O)OCC1c2ccccc2-c2ccccc21 [Compound 73, Fmoc-L-Phe(2-Cl)] | – | species preference of N-phos inhibition (mouse versus human), in words [2]: more potent on inhibiting the mouse N-phos than the human enzyme |
| ~200 | – | – | – | – | – | – | > 75 | inhibitory | inhibitory | O=C(N[C@@H](Cc1c[nH]c2ccccc12)C(=O)O)OCC1c2ccccc2-c2ccccc21 [Compound 78, Fmoc-L-Trp] | – | time-dependent change in C-EH inhibition, mouse sEH [1]: did not display any time-dependent change; selectivity index (N-phos over C-EH) in mouse sEH [2]: ~ 50 |
